Source: publication PMC5466188 (Biotechnology Reports, 2014)

These compounds were tested against Acetylcholinesterase (AChE, from electric eel) (Electrophorus electricus, UniProt O42275) (assay: In vitro AChE inhibition assay).
Format: biochemical

Acetylcholinesterase (AChE, from electric eel), sequence (O42275 24-633): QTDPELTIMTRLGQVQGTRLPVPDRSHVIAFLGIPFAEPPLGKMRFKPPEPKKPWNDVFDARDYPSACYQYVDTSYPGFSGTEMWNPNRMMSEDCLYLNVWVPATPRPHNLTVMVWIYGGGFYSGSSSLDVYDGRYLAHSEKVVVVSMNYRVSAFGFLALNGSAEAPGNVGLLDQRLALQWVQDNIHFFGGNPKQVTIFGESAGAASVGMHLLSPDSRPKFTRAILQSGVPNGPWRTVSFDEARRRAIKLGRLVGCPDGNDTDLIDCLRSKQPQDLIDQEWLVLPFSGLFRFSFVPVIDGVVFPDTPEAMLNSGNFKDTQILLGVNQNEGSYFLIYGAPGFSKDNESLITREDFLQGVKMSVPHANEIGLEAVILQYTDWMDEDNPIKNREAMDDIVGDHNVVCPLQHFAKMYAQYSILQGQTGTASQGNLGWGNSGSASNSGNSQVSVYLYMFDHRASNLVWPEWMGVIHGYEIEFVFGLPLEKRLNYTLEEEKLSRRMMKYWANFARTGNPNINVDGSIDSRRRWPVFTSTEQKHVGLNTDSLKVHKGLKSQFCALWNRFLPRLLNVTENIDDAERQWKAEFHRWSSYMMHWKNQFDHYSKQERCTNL

Q: For `CC1=C(C(=O)NC(=O)c2cnccn2)C(c2ccc(Cl)cc2)NC(=S)N1` (stereo not drawn) [Compound 4j, 4-(4-Chlorophenyl)-6-methyl-N-(pyrazin-2-ylcarbonyl)-2-thioxo-1,2,3,4-tetrahydropyrimidine-5-carboxamide], which IC50 is on record?
A: The IC50 was 880 ± 10 nM.

Q: How did the IC50 turn out when `CC1=C(C(=O)NC(=O)c2cnccn2)C(c2cccc([N+](=O)[O-])c2)NC(=O)N1` (stereo not drawn) [Compound 4c, 6-Methyl-4-(3-nitrophenyl)-2-oxo-N-(pyrazin-2-ylcarbonyl)-1,2,3,4-tetrahydropyrimidine-5-carboxamide] was run?
A: The IC50 was 2540 ± 10 nM.

Q: Which IC50 does the source give for `CC1=C(C(=O)NC(=O)c2cnccn2)C(c2ccc(F)cc2)NC(=S)N1` (stereo not drawn) [Compound 4h, 4-(4-Fluorophenyl)-6-methyl-N-(pyrazin-2-ylcarbonyl)-2-thioxo-1,2,3,4-tetrahydropyrimidine-5-carboxamide] here?
A: The IC50 was 750 ± 10 nM.

Q: Which IC50 does the source give for `CC1=C(C(=O)NC(=O)c2cnccn2)C(c2ccccc2)NC(=S)N1` (stereo not drawn) [Compound 4b, 6-Methyl-4-phenyl-N-(pyrazin-2-ylcarbonyl)-2-thioxo-1,2,3,4-tetrahydropyrimidine-5-carboxamide] here?
A: Its IC50 is 5260 ± 10 nM.

Q: For `CC1=C(C(=O)NC(=O)c2cnccn2)C(c2ccncc2)NC(=S)N1` (stereo not drawn) [Compound 4l, 6-Methyl-N-(pyrazin-2-ylcarbonyl) -4-(pyridin-4-yl) -2-thioxo-1,2,3,4-tetrahydropyrimidine-5-carboxamide], which IC50 is on record?
A: The IC50 was 110 ± 10 nM.

Q: `CC1=C(C(=O)NC(=O)c2cnccn2)C(c2ccccc2)NC(=O)N1` (stereo not drawn) [Compound 4a, 6-Methyl-2-oxo-4-phenyl-N-(pyrazin-2-ylcarbonyl)-1,2,3,4-tetrahydropyrimidine-5-carboxamide] was tested. Which IC50 did it give?
A: Its IC50 is 5350 ± 10 nM.

Q: With `CC1=C(C(=O)NC(=O)c2cnccn2)C(c2ccc(Cl)cc2)NC(=O)N1` (stereo not drawn) [Compound 4i, 4-(4-Chlorophenyl)-6-methyl-2-oxo-N-(pyrazin-2-ylcarbonyl)-1,2,3,4-tetrahydropyrimidine-5-carboxamide] as the compound, how does the IC50 read?
A: The IC50 was 940 ± 10 nM.

Q: With `CC1=C(C(=O)NC(=O)c2cnccn2)C(c2ccncc2)NC(=O)N1` (stereo not drawn) [Compound 4k, 6-Methyl-2-oxo-N-(pyrazin-2-ylcarbonyl)-4-(pyridin-4-yl)-1,2,3,4-tetrahydropyrimidine-5-carboxamide] as the compound, how does the IC50 read?
A: Its IC50 is 190 ± 10 nM.

Q: `CC1=C(C(=O)NC(=O)c2cnccn2)C(c2cccc([N+](=O)[O-])c2)NC(=S)N1` (stereo not drawn) [Compound 4d, 6-Methyl-4-(3-nitrophenyl)-N-(pyrazin-2-ylcarbonyl)-2-thioxo-1,2,3,4-tetrahydropyrimidine-5-carboxamide] was tested. Which IC50 did it give?
A: Its IC50 is 1820 ± 10 nM.

Q: For `CC1=C(C(=O)NC(=O)c2cnccn2)C(c2ccc(F)cc2)NC(=O)N1` (stereo not drawn) [Compound 4g, 4-(4-Fluorophenyl)-6-methyl-2-oxo-N-(pyrazin-2-ylcarbonyl)-1,2,3,4-tetrahydropyrimidine-5-carboxamide], which IC50 is on record?
A: The IC50 was 860 ± 10 nM.

Q: Which IC50 does the source give for `CC1=C(C(=O)NC(=O)c2cnccn2)C(c2cccc(Cl)c2)NC(=S)N1` (stereo not drawn) [Compound 4f, 4-(3-Chlorophenyl)-6-methyl-N-(pyrazin-2-ylcarbonyl)-2-thioxo-1,2,3,4-tetrahydropyrimidine-5-carboxamide] here?
A: Its IC50 is 1050 ± 10 nM.

Q: With `CC1=C(C(=O)NC(=O)c2cnccn2)C(c2cccc(Cl)c2)NC(=O)N1` (stereo not drawn) [Compound 4e, 4-(3-Chlorophenyl)-6-methyl-2-oxo-N-(pyrazin-2-ylcarbonyl)-1,2,3,4-tetrahydropyrimidine-5-carboxamide] as the compound, how does the IC50 read?
A: Its IC50 is 1210 ± 10 nM.
